Each block holds one compound with its values, some of them ahead of it.
Legend:
[1] = biological target: T1, Inhibitor of nuclear factor kappa-B kinase subunit beta (Homo sapiens, UniProt O14920)
T1 sequence (O14920 whole entry): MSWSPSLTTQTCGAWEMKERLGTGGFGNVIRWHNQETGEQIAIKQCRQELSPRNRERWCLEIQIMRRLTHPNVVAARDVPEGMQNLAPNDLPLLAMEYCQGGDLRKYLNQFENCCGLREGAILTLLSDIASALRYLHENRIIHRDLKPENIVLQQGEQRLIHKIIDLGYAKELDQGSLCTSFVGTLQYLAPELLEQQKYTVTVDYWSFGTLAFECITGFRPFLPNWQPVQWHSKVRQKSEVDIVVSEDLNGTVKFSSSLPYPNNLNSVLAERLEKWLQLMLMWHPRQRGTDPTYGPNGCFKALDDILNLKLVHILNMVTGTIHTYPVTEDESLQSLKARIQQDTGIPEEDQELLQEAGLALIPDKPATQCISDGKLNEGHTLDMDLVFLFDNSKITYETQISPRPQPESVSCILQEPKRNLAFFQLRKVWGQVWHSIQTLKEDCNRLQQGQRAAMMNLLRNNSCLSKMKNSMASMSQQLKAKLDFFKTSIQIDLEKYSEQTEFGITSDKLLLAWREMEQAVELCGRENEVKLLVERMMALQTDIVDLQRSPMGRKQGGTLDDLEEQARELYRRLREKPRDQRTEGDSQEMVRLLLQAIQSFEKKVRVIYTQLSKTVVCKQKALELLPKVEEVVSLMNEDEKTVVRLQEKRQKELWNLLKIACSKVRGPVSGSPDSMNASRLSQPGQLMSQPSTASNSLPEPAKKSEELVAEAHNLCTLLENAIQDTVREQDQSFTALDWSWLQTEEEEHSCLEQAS

[2] = biological target: T2, Casein kinase I isoform delta (Homo sapiens, UniProt P48730)
T2 sequence (P48730 whole entry, canonical isoform): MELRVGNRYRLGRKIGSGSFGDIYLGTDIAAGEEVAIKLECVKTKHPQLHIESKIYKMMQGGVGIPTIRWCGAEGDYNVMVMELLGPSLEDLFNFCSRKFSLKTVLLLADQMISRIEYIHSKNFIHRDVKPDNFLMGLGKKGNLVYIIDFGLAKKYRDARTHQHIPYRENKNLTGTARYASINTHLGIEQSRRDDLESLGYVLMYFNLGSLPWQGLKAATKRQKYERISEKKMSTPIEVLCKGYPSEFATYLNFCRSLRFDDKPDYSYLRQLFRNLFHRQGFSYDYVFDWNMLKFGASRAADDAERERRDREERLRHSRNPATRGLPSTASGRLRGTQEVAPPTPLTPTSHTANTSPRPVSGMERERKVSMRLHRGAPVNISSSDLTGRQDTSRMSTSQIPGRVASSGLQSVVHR

[3] = biological target: T3, Casein kinase I isoform alpha (Homo sapiens, UniProt P48729)
T3 sequence (P48729 whole entry, canonical isoform): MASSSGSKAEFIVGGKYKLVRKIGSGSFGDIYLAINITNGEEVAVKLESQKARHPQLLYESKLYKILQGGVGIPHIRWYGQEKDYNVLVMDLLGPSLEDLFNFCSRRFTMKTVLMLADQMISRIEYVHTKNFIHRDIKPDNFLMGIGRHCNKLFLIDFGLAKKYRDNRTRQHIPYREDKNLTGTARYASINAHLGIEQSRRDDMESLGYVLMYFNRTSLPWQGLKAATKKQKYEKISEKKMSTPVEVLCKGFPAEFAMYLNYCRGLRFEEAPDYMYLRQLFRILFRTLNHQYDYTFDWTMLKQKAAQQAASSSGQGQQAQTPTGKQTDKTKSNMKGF

[4] = biological target: T4, Casein kinase I isoform epsilon (Homo sapiens, UniProt P49674)
T4 sequence (P49674 whole entry, canonical isoform): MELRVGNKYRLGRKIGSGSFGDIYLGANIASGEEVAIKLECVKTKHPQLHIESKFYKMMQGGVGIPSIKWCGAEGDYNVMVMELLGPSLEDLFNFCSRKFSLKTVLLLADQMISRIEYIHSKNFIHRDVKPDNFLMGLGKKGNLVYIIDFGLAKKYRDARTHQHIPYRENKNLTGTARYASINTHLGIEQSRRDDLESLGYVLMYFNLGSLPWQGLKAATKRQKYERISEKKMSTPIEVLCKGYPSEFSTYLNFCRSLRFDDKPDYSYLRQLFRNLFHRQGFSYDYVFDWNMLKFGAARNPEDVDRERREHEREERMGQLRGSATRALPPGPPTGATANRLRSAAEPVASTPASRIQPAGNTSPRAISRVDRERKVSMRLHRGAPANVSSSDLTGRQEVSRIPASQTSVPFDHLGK

[5] = biological target: T3, Casein kinase I isoform alpha; remark: listed apart in the source
[6] = biological target: T4, Casein kinase I isoform epsilon; remark: listed apart in the source
[7] = biological target: T2, Casein kinase I isoform delta; remark: listed apart in the source

IC50 [1]: > 10000 nM
SMILES: CN(C)C(=O)c1sc2nc(N3CCC(S(C)(=O)=O)CC3)cc(C(F)(F)F)c2c1N [BI-5026]

IC50 [2]: > 3000 nM | IC50 [3]: > 3000 nM | IC50 [4]: > 3000 nM
SMILES: CCc1ccc(-c2ncn(CC3(F)CCN(C)CC3)c2-c2ccnc3[nH]ccc23)nc1

IC50 [5]: 7.2 nM | IC50 [6]: 27.3 nM | IC50 [7]: 6.1 nM
SMILES: CN1CCC(F)(Cn2cnc(-c3ccc(F)cn3)c2-c2ccnc3[nH]ccc23)CC1

— ChEMBL document CHEMBL5446079, “Affinity Biochemical Literature for EUbOPEN Chemogenomic Library” (2024)
